Reference: patent publication US20250282749A1 (Tango Therapeutics, Inc., priority 2022, published 2025)

Tests used:
Type in all cases: cell-based
[1] = tested on: PRMT5 (SDMA) in HAP1 MTAP-deleted cell line; experiment: SDMA in-cell western assay, HAP1 MTAP-deleted cell line; conditions: for IC50 / IC90: Homo sapiens, SDMA in-cell western, HAP1 MTAP-deleted (MTAP-null) cell line; for Hap1 MTAP intact/deleted ratio: ratio of SDMA in-cell western IC50 in HAP1 MTAP-intact to IC50 in HAP1 MTAP-deleted cell line
Excerpt: (§1) HAP1 MTAP-intact is a cell line in which endogenous levels of MTAP are expressed, and HAP1 MTAP-deleted is an MTAP-null cell line.

[2] = tested on: HAP1 MTAP-deleted cell line; experiment: viability assay for the MTAP-deleted cell line; conditions: Homo sapiens
[3] = tested on: PRMT5 (SDMA) in HAP1 MTAP-intact cell line; experiment: SDMA in-cell western assay, HAP1 MTAP-intact cell line; conditions: Homo sapiens, HAP1 MTAP-intact cell line (endogenous MTAP), read-out: Hap 1 MTAP intact IC50
Excerpt: as §1

Row | Structure (SMILES) | IC50 [1] | IC90 [1] | IC50 [3] | Hap1 MTAP intact/deleted ratio [1] | IC50 [2]
1 | Cc1cc(NC(=O)C(=O)N2C[C@@H](C)N(C(=O)C(C)C)C[C@@H]2c2cccc(N3CCN(C)CC3)c2)cnc1N [Compound 117, N-(6-amino-5-methylpyridin-3-yl)-2-((2S,5R)-4-isobutyryl-5-methyl-2-(3-(4-methylpiperazin-1-yl)phenyl)piperazin-1-yl)-2-oxoacetamide] | 5 to 50 nM | < 75 nM | 5 to 50 nM | C (an IC50 ratio of less than 15 fold) | < 100 nM
2 | Cc1cc(NC(=O)C(=O)N2C[C@@H](C)N(C(=O)C3(C(F)(F)F)CC3)C[C@@H]2c2ccc(Cl)c(Cl)c2)cnc1N [Compound 119, N-(6-amino-5-methylpyridin-3-yl)-2-((2S,5R)-2-(3,4-dichlorophenyl)-5-methyl-4-(1-(trifluoromethyl)cyclopropanecarbonyl)piperazin-1-yl)-2-oxoacetamide] | 5 to 50 nM | 75 to 125 nM | > 50 nM | C (an IC50 ratio of less than 15 fold) | < 100 nM
3 | C[C@@H]1CN(C(=O)C(=O)Nc2cnc(N)c(C3CC3)c2)[C@@H](c2ccc(F)cc2)CN1C(=O)OC(C)(C)C (stereo in doubt) [Compound 144, tert-butyl 4-(2-((6-amino-5-cyclopropylpyridin-3-yl)amino)-2-oxoacetyl)-5-(4-fluorophenyl)-2-methylpiperazine-1-carboxylate] | < 5 nM | < 75 nM | > 50 nM | B (an IC50 ratio greater than or equal to 15 fold but lower than 30 fold) | < 100 nM
4 | C[C@@H]1CN(C(=O)C(=O)Nc2cnc(N)c(C3CC3)c2)[C@@H](c2ccc(F)c(F)c2)CN1C(=O)C1(C)CC1 [Compound 59, N-(6-amino-5-cyclopropylpyridin-3-yl)-2-((2S,5R)-2-(3,4-difluorophenyl)-5-methyl-4-(1-methylcyclopropanecarbonyl)piperazin-1-yl)-2-oxoacetamide] | < 5 nM | < 75 nM | > 50 nM | B (an IC50 ratio greater than or equal to 15 fold but lower than 30 fold) | < 100 nM
5 | Cc1cc(NC(=O)C(=O)N2C[C@@H](C)N(C(=O)C(C)(C)C)C[C@@H]2c2ccccc2)cnc1N [Compound 99, N-(6-amino-5-methylpyridin-3-yl)-2-((2S,5R)-5-methyl-2-phenyl-4-pivaloylpiperazin-1-yl)-2-oxoacetamide] | < 5 nM | < 75 nM | 5 to 50 nM | C (an IC50 ratio of less than 15 fold) | < 100 nM
6 | CCc1cc(NC(=O)C(=O)N2C[C@@H](C)N(C(=O)C(C)C)C[C@@H]2c2ccc(N3CCN(C)CC3)cc2)cnc1N [Compound 89, N-(6-amino-5-ethylpyridin-3-yl)-2-((2S,5R)-4-isobutyryl-5-methyl-2-(4-(4-methylpiperazin-1-yl)phenyl)piperazin-1-yl)-2-oxoacetamide] | < 5 nM | < 75 nM | > 50 nM | A (an IC50 ratio greater than or equal to 30 fold) | < 100 nM
7 | Cc1cc(NC(=O)C(=O)N2C[C@@H](C)N(C(=O)C(C)(C)CN3CCN(C)CC3)C[C@@H]2c2ccccc2)cnc1N [Compound 134] | 5 to 50 nM | > 125 nM | 5 to 50 nM | C (an IC50 ratio of less than 15 fold) | < 100 nM
8 | C[C@@H]1CN(C(=O)C(=O)Nc2cnc(N)c3cn[nH]c23)[C@@H](c2ccccc2)CN1C [Compound 57] | < 5 nM | < 75 nM | > 50 nM | B (an IC50 ratio greater than or equal to 15 fold but lower than 30 fold) | < 100 nM
9 | C[C@@H]1CN(C(=O)C(=O)Nc2cncc3cn[nH]c23)[C@@H](c2ccccc2)CN1C(=O)C1(C(F)(F)F)CC1 [Compound 100, 2-((2S,5R)-5-methyl-2-phenyl-4-(1-(trifluoromethyl)cyclopropanecarbonyl)piperazin-1-yl)-2-oxo-N-(1H-pyrazolo[4,3-c]pyridin-7-yl)acetamide] | 5 to 50 nM | > 125 nM | > 50 nM | C (an IC50 ratio of less than 15 fold) | < 100 nM
10 | C[C@@H]1CN(C(=O)C(=O)Nc2cncc3cn[nH]c23)[C@@H](c2ccccc2)CN1C(=O)OC(C)(C)C [Compound 35, tert-butyl (2R,5S)-2-methyl-4-[2-oxo-2-(1H-pyrazolo[4,3-c]pyridin-7-ylamino)acetyl]-5-phenyl-piperazine-1-carboxylate] | 5 to 50 nM | > 125 nM | > 50 nM | A (an IC50 ratio greater than or equal to 30 fold) | < 100 nM

Further lines, with some results ahead:

Row | IC50 [1] | IC90 [1] | IC50 [3] | Structure (SMILES) | Hap1 MTAP intact/deleted ratio [1] | IC50 [2]
11 | 5 to 50 nM | < 75 nM | 5 to 50 nM | CC(C)C(=O)N1C[C@H](c2ccc3scnc3c2)N(C(=O)C(=O)Nc2cnc(N)c(C3CC3)c2)C[C@H]1C [Compound 93, N-(6-amino-5-cyclopropyl-3-pyridyl)-2-[(2S,5R)-2-(1,3-benzothiazol-5-yl)-5-methyl-4-(2-methylpropanoyl)piperazin-1-yl]-2-oxo-acetamide] | C (an IC50 ratio of less than 15 fold) | < 100 nM
12 | 5 to 50 nM | < 75 nM | > 50 nM | CCc1cc(NC(=O)C(=O)N2C[C@@H](C)N(C(=O)OC(C)(C)C)C[C@@H]2c2ccc(F)cc2)cnc1N [Compound 145, (2R,5S)-tert-butyl 4-(2-((6-amino-5-ethylpyridin-3-yl)amino)-2-oxoacetyl)-5-(4-fluorophenyl)-2-methylpiperazine-1-carboxylate] | B (an IC50 ratio greater than or equal to 15 fold but lower than 30 fold) | < 100 nM
13 | < 5 nM | < 75 nM | > 50 nM | CCc1cc(NC(=O)C(=O)N2C[C@@H](C)N(C(=O)C3(C(F)(F)F)CC3)C[C@@H]2c2ccc(F)cc2)cnc1N [Compound 116, N-(6-amino-5-ethylpyridin-3-yl)-2-((2S,5R)-2-(4-fluorophenyl)-5-methyl-4-(1-(trifluoromethyl)cyclopropanecarbonyl)piperazin-1-yl)-2-oxoacetamide] | A (an IC50 ratio greater than or equal to 30 fold) | < 100 nM
14 | 5 to 50 nM | > 125 nM | > 50 nM | CC(C)C(=O)N1C[C@H](c2ccc(N3CCN(C)CC3)cc2)N(C(=O)C(=O)Nc2cnc(N)c(C3CC3)c2)C[C@H]1C (racemic) [Compound 4, rac-N-(6-amino-5-cyclopropylpyridin-3-yl)-2-((2R,5S)-4-isobutyryl-5-methyl-2-(4-(4-methylpiperazin-1-yl)phenyl)piperazin-1-yl)-2-oxoacetamide] | C (an IC50 ratio of less than 15 fold) | 100 to 1000 nM
15 | < 5 nM | < 75 nM | > 50 nM | Cc1cc(NC(=O)C(=O)N2C[C@@H](C)N(C(=O)OC(C)(C)C)C[C@@H]2c2ccc(F)cc2)cnc1N [Compound 101] | B (an IC50 ratio greater than or equal to 15 fold but lower than 30 fold) | < 100 nM
16 | 5 to 50 nM | 75 to 125 nM | > 50 nM | C[C@H]1CN(C(=O)C(=O)Nc2cnc(N)c(C3CC3)c2)[C@H](c2ccc(F)cc2)CN1C(=O)CC1CC1 [Compound 6] | B (an IC50 ratio greater than or equal to 15 fold but lower than 30 fold) | < 100 nM
17 | < 5 nM | 75 to 125 nM | > 50 nM | Cc1cc(NC(=O)C(=O)N2C[C@@H](C)N(C(=O)C3(C(F)(F)F)CC3)C[C@@H]2c2ccc(Cl)cc2)cnc1N [Compound 131, N-(6-amino-5-methylpyridin-3-yl)-2-((5R)-2-(4-chlorophenyl)-5-methyl-4-(1-(trifluoromethyl)cyclopropanecarbonyl)piperazin-1-yl)-2-oxoacetamide] | C (an IC50 ratio of less than 15 fold) | 100 to 1000 nM
18 | 5 to 50 nM | > 125 nM | > 50 nM | CCC(=O)N1C[C@H](c2ccc(F)cc2)N(C(=O)C(=O)Nc2cnc(N)c(C3CC3)c2)C[C@H]1C [Compound 153] | B (an IC50 ratio greater than or equal to 15 fold but lower than 30 fold) | 100 to 1000 nM
19 | 5 to 50 nM | 75 to 125 nM | > 50 nM | CCc1cc(NC(=O)C(=O)N2C[C@@H](C)N(C(=O)C3(C(F)(F)F)CC3)C[C@@H]2c2ccccc2)cnc1N [Compound 81, N-(6-amino-5-ethylpyridin-3-yl)-2-((2S,5R)-5-methyl-2-phenyl-4-(1-(trifluoromethyl)cyclopropanecarbonyl)piperazin-1-yl)-2-oxoacetamide] | B (an IC50 ratio greater than or equal to 15 fold but lower than 30 fold) | < 100 nM
20 | 5 to 50 nM | 75 to 125 nM | > 50 nM | C[C@@H]1CN(C(=O)C(=O)Nc2cncc3[nH]ncc23)[C@@H](c2ccccc2)CN1C(=O)C(C)(C)C [Compound 55, 2-((2S,5R)-5-methyl-2-phenyl-4-pivaloylpiperazin-1-yl)-2-oxo-N-(1H-pyrazolo[3,4-c]pyridin-4-yl)acetamide] | C (an IC50 ratio of less than 15 fold) | < 100 nM
